Legend:
[1] = tested on: Plasmodium falciparum; test: Antimalarial activity against multidrug-resistant Plasmodium falciparum 7G8 infected in human erythrocytes by SYBR green 1-based fluorescence assay; assay type: functional, organism-based
[2] = tested on: HepG2; test: Cytotoxicity against human HepG2 cells measured after 24 to 36 hrs by resazurin dye based fluorescence assay; assay type: cell-based
[3] = tested on: Plasmodium falciparum; test: Antimalarial activity against atovaquone-resistant Plasmodium falciparum Tm90-C2B infected in human erythrocytes by SYBR green 1-based fluorescence assay; assay type: functional, organism-based
[4] = tested on: Plasmodium falciparum; test: Antimalarial activity against chloroquine-sensitive Plasmodium falciparum D6 infected in human erythrocytes by SYBR green 1-based fluorescence assay; assay type: functional, organism-based
[5] = Selectivity index, ratio of IC50 for human HepG2 cells to IC50 for chloroquine-sensitive Plasmodium falciparum D6 infected in human erythrocytes; assay type: toxicity, cell-based; details: read-out: Ratio IC50
[6] = tested on: Plasmodium falciparum; test: Antimalarial activity against multidrug-resistant Plasmodium falciparum Dd2 infected in human erythrocytes by SYBR green 1-based fluorescence assay; assay type: functional, organism-based
[7] = tested on: Plasmodium berghei; test: Antimalarial activity against luciferase-expressing Plasmodium berghei ANKA 676m1cl1 sporozoites infected in human HepG2A16 cells measured after 45 hrs by luciferase-luciferin based reporter assay; assay type: functional, organism-based; details: ANKA 676m1cl1, HepG2A16, 45 h
[8] = Half life in mouse liver microsomes at 1 uM by LC-MS analysis; assay type: ADME, Microsome
[9] = Half life in human liver microsomes at 1 uM by LC-MS analysis; assay type: ADME, Microsome

SMILES | IC50 [1] | IC50 [2] | IC50 [3] | IC50 [4] | selectivity ratio [5] | IC50 [6] | IC50 [7] | half-life at 1 µM [8] | half-life at 1 µM [9]
CCCCNCCCOc1ccc2c(=O)c3c(Cl)c(Cl)ccc3[nH]c2c1 | 106 nM | 22700 nM | 68 nM | 46 nM | 492 | 37 nM | – | – | –
CCN(CC)CCOc1ccc2c(=O)c3ccccc3[nH]c2c1 | – | 96800 nM | 2530 nM | 1350 nM | 72 | 1190 nM | 503 nM | – | –
CCN(CC)CCOc1ccc2c(=O)c3ccc(Cl)c(Cl)c3[nH]c2c1 | > 2500 nM | 46000 nM | > 2500 nM | 749 nM | 61 | 2440 nM | – | – | –
CCCN(CCC)CCOc1ccc2c(=O)c3ccc(C(F)(F)F)cc3[nH]c2c1 | 5.6 nM | > 100000 nM | 1540 nM | 26 nM | > 3850 | 0.44 nM | – | – | –
CCN(CC)CCOc1ccc2c(=O)c3c(Cl)ccc(Cl)c3[nH]c2c1 | 848 nM | 77000 nM | > 2500 nM | 506 nM | 152 | 1300 nM | – | – | –
CCN(CC)CCOc1ccc2c(=O)c3cc(F)c(OCCN(CC)CC)cc3[nH]c2c1 | 774 nM | > 200000 nM | 386 nM | 116 nM | > 12500 | 209 nM | – | – | –
CCN(CC)CCOc1ccc2c(=O)c3ccc(F)cc3[nH]c2c1 | 353 nM | 47900 nM | 1670 nM | 377 nM | 127 | 485 nM | 119 nM | > 1 h | > 1 h
O=c1c2ccc(OCCCCl)cc2[nH]c2cc(Cl)cc(Cl)c12 | 6.6 nM | > 100000 nM | 70 nM | 2.2 nM | > 45500 | 2.9 nM | 523 nM | 0.917 h | > 1 h
CCN(CC)CCOc1ccc2c(=O)c3ccc(Cl)cc3n(CCN(CC)CC)c2c1 | 86 nM | > 40000 nM | 71 nM | 49 nM | > 816 | 77 nM | – | – | –
CCCN(CCC)CCOc1ccc2[nH]c3cc(Cl)cc(OC)c3c(=O)c2c1 | 32 nM | 36800 nM | 96 nM | 30 nM | 1220 | 11 nM | – | – | –
O=c1c2ccc(OCCCl)cc2[nH]c2cc(F)cc(F)c12 | 22 nM | > 200000 nM | 46 nM | 5 nM | > 40000 | 7 nM | – | – | –
O=c1c2ccc(Cl)cc2[nH]c2cc(OCCN3CCCC3)ccc12 | 959 nM | 25500 nM | 1500 nM | 529 nM | 48 | 781 nM | 456 nM | – | –
CCN(CC)CCOc1ccc2c(=O)c3cc(Cl)c(Cl)cc3[nH]c2c1 | 73 nM | > 100000 nM | 507 nM | 44 nM | > 2270 | 132 nM | – | – | –
O=c1c2ccc(OCCCCl)cc2[nH]c2cc(F)cc(F)c12 | 1.9 nM | > 100000 nM | 89 nM | 1.4 nM | > 71400 | 0.3 nM | – | – | –
CCCCNCCCOc1ccc2c(=O)c3c(Cl)cc(Cl)cc3[nH]c2c1 | 294 nM | 11100 nM | 82 nM | 101 nM | 110 | 186 nM | – | – | –
CCCN(CCC)CCOc1ccc2[nH]c3cc(OC)cc(Cl)c3c(=O)c2c1 | 288 nM | > 100000 nM | 558 nM | 79 nM | > 1270 | 92 nM | – | – | –
CN(C)CCOc1ccc2c(=O)c3ccc(Cl)cc3[nH]c2c1 | 70 nM | 59000 nM | 563 nM | 56 nM | 1050 | 63 nM | – | – | –
CCN(CC)CCOc1ccc2c(=O)c3ccc(C(F)(F)F)cc3[nH]c2c1 | 1540 nM | 38600 nM | 1390 nM | 816 nM | 47 | 555 nM | – | – | –
CCN(CC)CCOc1ccc2c(=O)c3cc(F)c(F)cc3[nH]c2c1 | 110 nM | > 200000 nM | 270 nM | 146 nM | > 1370 | 187 nM | – | – | –
CC(C)(C)NCCCOc1ccc2c(=O)c3cc(Cl)ccc3[nH]c2c1 | > 2500 nM | 75200 nM | 2140 nM | 674 nM | 112 | 1020 nM | – | – | –
O=c1c2ccc(OCCN3CCOCC3)cc2[nH]c2ccc(Cl)c(Cl)c12 | 273 nM | > 100000 nM | 196 nM | 65 nM | > 1540 | 38 nM | – | – | –

— ChEMBL document CHEMBL4390668, “Discovery and Structural Optimization of Acridones as Broad-Spectrum Antimalarials” (J Med Chem, 2019)
